US12616704B2, “Cannabichromene formulation for pain management” (Zyus Life Sciences Inc., priority 2020, dated 2026)

Assays:
[1] = Welfare observations in OIPN study; assay type: in vivo, C57BL/6J mice; details: CBC 20 mg/kg p.o., OIPN mice
Excerpt: Seven mice were disqualified from further study due to showing too mild cool allodynia.

[2] = target: CB1 receptors (Homo sapiens, UniProt P21554); details: cited from earlier work
[3] = test system: SNL-induced motor phenotype; assay: Fine motor kinematic gait analysis (MotoRater) in SNL model; assay type: in vivo, Sprague-Dawley rats; details: for overall gait score, CBC compared to pregabalin: p: CBC 10 mg/kg vs. pregabalin 50 mg/kg; for Overall kinematic gait score, Vehicle vs. treatment: Summary / Overall kinematic gait score, Vehicle vs. treatment: Predicted (LS) mean diff.: between groups
Description: The treatment groups received the following test article mixtures: • Group 1: treated with vehicle (0.9% saline) • Group 2: treated with Pregabalin (50 mg/kg) • Group 3: treated with CBC (10 mg/kg)
Administration of Treatments. CBC (cannabichromene) formulation, the vehicle, or pregabalin treatment was administered according to Table 1 on study day 8 to all study animals, and on study day 10 to 6 animals per group. The dousing route of CBC or the vehicle were intragastric (p.o.), while pregabalin was administered intraperitoneally (i.p.). In addition to D8, pregabalin was administered on D9, at 2 h prior to the evf test. All animals of the pregabalin group were euthanized on D9, following the last test trial. The CBC was dissolved and diluted to one of the following vehicles:
Fine Motor Kinematic Gait Analysis. The subjected to gait analysis at the baseline and on study days 8, 9, 11, 14 and 17, at a minimum of 30 min after the evF test. The assay was carried out by MotoRater (TSE Systems, Homburg, Germany), with the walking mode. Prior to commencing the test, the essential body points (e.g. joints, limbs, nose, tail) were marked for tracking. The information of the gait performance was captured using a high speed camera (300 frames/second) from below and both sides. Next, the captured videos are converted to custom software. The raw data was obtained by tracking the marked points of the body from the videos recorded from all 3 dimensions. The raw data thus comprise correlation of the movements of different body points in coordinates related to the ground and each three dimensions.
Different gait patterns and movements were analyzed using a custom made automated analysis system. Information about altogether over a hundred kinematic parameters were attained. These comprised e.g:
All MotoRater data were analyzed for the distinct parameters, as well as for all combined parameters, using principal component analysis (PCA). The obtained results produce the model phenotype in gait analysis i.e. the difference between vehicle and cannabinoid treated animals regarding both individual parameters and PCA.
In addition to the baseline test, the motorater test was performed altogether four times over the course of behavioral study phase: • on D7, to assess the model-specific motor defects prior to dosing, • on D8, after finishing the 4-h evF, • on D8, after finishing the 8-h evF, and • on D9, after finishing the 24-h evF.
The kinematic assay was not performed to the animals before a minimum of 30 min after evF test.

[4] = test system: Oxaliplatin-induced cool allodynia; assay: Acetone Cooling Test (ACT) in oxaliplatin-induced polyneuropathy (OIPN) model; assay type: in vivo, C57BL/6J mice; details: CBC 20 mg/kg p.o.
Description: Model Induction—Mouse Oxaliplatin-induced polyneuropathy (OIPN) model was induced over a three-week period. The day of first Oxaliplatin (OXP) injection is referred to as day 0 (DO). OXP was administered as six separate intraperitoneal injections at 4.5-mg/kg (10 ml/kg, i.p.) to Groups 2, 3, and 4 on DO, D4, D8, D12, D16, and D20. The cumulative OXP dose was thus 27 mg/kg. The in-life procedures, such as observations, tests, and/or measurements were performed by Charles River Discovery Services with blinded methods. The mice were distributed into 4 groups (n=8 for Vehicle Control; n=10 OXP Control; n=20 CBC; n=15 Duloxetine).
Treatments—Following exposure to OXP for 20 days, Groups 3 and 4 were treated with CBC (20 mg/kg, p.o.) and Duloxetine (25 mg/kg, i.p.), respectively, for 10 consecutive days. In a similar regimen Groups 1 and 2 (Vehicle Control and OXP-Vehicle Control, respectively) received a corresponding volume of 5% glucose solution at an administration volume of 10 mL/kg.
Acetone Cooling Test (ACT) —To produce a measurable cooling sensation, 10-15 μL of acetone was applied onto the medial area of the plantar hind paw with a 0.5 ml insulin syringe. Responses of a mouse to acetone were monitored for 20 s, and a score given based on a four-point scale (0-3 points), according to the response intensity, continuation, and briskness. The higher the score, the greater the cool allodynia sensed by the mouse.
Within one test timepoint, a total of 3 trials were performed per paw with a minimum gap of 5 min between testing. The three individual scores were added up to obtain a single score over a cumulative period of 60 s. Thus, for one test, the minimum score of one paw is 0 (no cool allodynia), while the maximum possible score is 9 (intensive cool allodynia). The total scores for the left and right paws were averaged to accomplish a single result value per mouse at each timepoint.
The Acetone Cooling Test was performed prior to OXP administration (Baseline), following the last OXP injection (D21), one day after the first CBC, Duloxetine, or Vehicle treatment (D22), and after a 10-day daily dosing of CBC, Duloxetine, or Vehicle treatment (D31). Taken together, the ACT was used to assess chemotherapy-induce cool allodynia as stated in the schedule:
On D22: At 60 min after the first Vehicle/CBC dose and 120 min after Dulx dose.
On D31: At 60 min after the last Vehicle/CBC and 120 min after Dulx dose.

[5] = BL (before dosing), vehicle vs. CBC 10 mg/kg group
[6] = D 8 5 h, vehicle vs. CBC 10 mg/kg
[7] = Table 8, BL (before dosing), vehicle vs. CBC 10 mg/kg group
[8] = Table 8, D 8 5 h, vehicle vs. CBC 10 mg/kg
[9] = within group, CBC 10 mg/kg p.o., pregabalin 50 mg/kg i.p.
[10] = within group, z-score, CBC 10 mg/kg p.o., pregabalin 50 mg/kg i.p.

Sequence of CB1 receptors (P21554 whole entry): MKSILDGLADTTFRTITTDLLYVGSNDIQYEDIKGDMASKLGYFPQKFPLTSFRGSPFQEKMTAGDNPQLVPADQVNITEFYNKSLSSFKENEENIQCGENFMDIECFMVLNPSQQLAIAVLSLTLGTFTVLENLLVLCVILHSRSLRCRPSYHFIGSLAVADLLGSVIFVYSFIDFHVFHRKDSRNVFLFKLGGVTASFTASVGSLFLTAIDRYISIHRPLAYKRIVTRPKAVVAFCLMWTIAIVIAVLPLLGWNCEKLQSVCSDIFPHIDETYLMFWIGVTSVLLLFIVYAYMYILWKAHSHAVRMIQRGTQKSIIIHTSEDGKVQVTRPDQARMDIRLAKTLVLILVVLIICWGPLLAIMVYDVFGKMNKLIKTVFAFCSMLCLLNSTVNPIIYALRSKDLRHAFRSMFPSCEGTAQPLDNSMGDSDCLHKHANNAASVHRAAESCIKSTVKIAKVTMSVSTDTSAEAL

## CCCCCc1cc(O)c2c(c1)OC(C)(CCC=C(C)C)C=C2 (centres unmarked) [CBC, cannabichromene]
[1]
  adverse effects: no hyper-reactivity or psychoactive adverse effects
[2]
  binds to CB1 receptors only at concentrations higher than: higher than 1 micromolar
[3]; 5 h PD
  overall gait score, CBC compared to pregabalin: p: 0.07693
[3]; 9 h PD
  overall gait score, CBC compared to pregabalin: p: 0.04717
[3]; [5]
  Ankle ROM Deviation [degree]: Stats: 2.98
  Homolateral Interlimb coordination: Stats: 2.84
  Swing Speed Metric, Hind: Stats: −3.67
[3]; BL (before dosing), vehicle vs. treatment group
  Knee ROM Deviation [degree]: Stats: 2.88
[3]; Baseline (before SNL and dosing)
  Overall kinematic gait score, Vehicle vs. treatment: Summary: ns
[3]; Baseline (before SNL and dosing), z-score
  Overall kinematic gait score, Vehicle vs. treatment: Predicted (LS) mean diff.: −1
[3]; CBC 10 mg/kg
  overall Gait score compared to Vehicle: did not show a significant reduction in overall Gait score compared to Vehicle
  overall gait score, within group comparisons over time: did not identify a significant time-bound overall gait score difference
[3]; D7 (pre-dosing)
  Overall kinematic gait score, Vehicle vs. treatment: Summary: ns
[3]; D7 (pre-dosing), z-score
  Overall kinematic gait score, Vehicle vs. treatment: Predicted (LS) mean diff.: 0.1511
[3]; D8 5 h, CBC 10 mg/kg p.o., pregabalin 50 mg/kg i.p.
  Overall kinematic gait score, Vehicle vs. treatment: Summary: ns
[3]; [6]
  Hip Angle, Max [degree]: Stats: 4.29
  Knee Angle, Min [degree]: Stats: 3.78
  Mean Hip Jerk [m/s3]: Adjusted p-value: 0.01
  Mean Hip Jerk [m/s3]: Adjusted p-value Sig?: ** (** p≤0.01)
  Mean Hip Jerk [m/s3]: Stats: −3.04
  Mean Hip Jerk [m/s3]: p-value: 0.01
  Protraction, Hind [m]: Stats: −4.42
  Retraction, Hind [m]: Stats: 4.26
  Step Width, Fore [mm]: Stats: −2.86
[3]; D 8 5 h, vehicle vs. treatment, CBC 10 mg/kg, pregabalin 50 mg/kg
  Ankle Angle, Max [degree]: Stats: −2.85
[3]; D8 5 h, z-score, CBC 10 mg/kg p.o., pregabalin 50 mg/kg i.p.
  Overall kinematic gait score, Vehicle vs. treatment: Predicted (LS) mean diff.: 1.116
[3]; D8 9 h, CBC 10 mg/kg p.o., pregabalin 50 mg/kg i.p.
  Overall kinematic gait score, Vehicle vs. treatment: Summary: ns
[3]; D8 9 h, z-score, CBC 10 mg/kg p.o., pregabalin 50 mg/kg i.p.
  Overall kinematic gait score, Vehicle vs. treatment: Predicted (LS) mean diff.: 0.654
[3]; D9, CBC 10 mg/kg p.o., pregabalin 50 mg/kg i.p.
  Overall kinematic gait score, Vehicle vs. treatment: Summary: ns
[3]; D9, z-score, CBC 10 mg/kg p.o., pregabalin 50 mg/kg i.p.
  Overall kinematic gait score, Vehicle vs. treatment: Predicted (LS) mean diff.: −0.4602
[3]; D9 post-dosing, CBC 10 mg/kg
  Homolateral Interlimb coordination, CBC vs. Vehicle: p: 0.03
[3]; [7]
  Ankle ROM: Significance: * (p<0.05, significant)
  Ankle ROM: Statistic: 2.98
  Homolateral: Significance: * (p<0.05, significant)
  Homolateral: Statistic: 2.84
  Knee ROM: Significance: * (p<0.05, significant)
  Knee ROM: Statistic: 2.88
  Swing Speed: Significance: ** (p<0.01, very significant)
  Swing Speed: Statistic: −3.67
[3]; [8]
  Ankle Angle. Max: Significance: * (p<0.05, significant)
  Ankle Angle. Max: Statistic: −2.85
  Hip Angle. Max: Significance: *** (p<0.001, extremely/highly significant)
  Hip Angle. Max: Statistic: 4.29
  Knee Angle. Min: Significance: ** (p<0.01, very significant)
  Knee Angle. Min: Statistic: 3.78
  Mean Hip Jerk: Significance: * (p<0.05, significant)
  Mean Hip Jerk: Statistic: −3.04
  Mean Hip Jerk: p-value: 0.00953
  Protraction. Hind: Significance: *** (p<0.001, extremely/highly significant)
  Protraction. Hind: Statistic: −4.42
  Retraction. Hind: Significance: *** (p<0.001, extremely/highly significant)
  Retraction. Hind: Statistic: 4.26
  Step Width. Fore: Significance: * (p<0.05, significant)
  Step Width. Fore: Statistic: −2.86
[3]; baseline to D9, CBC 10 mg/kg
  Support Metric gait variables compared to Vehicle: No statistical significance was observed
[3]; [9]
  Overall kinematic gait score, D7 vs. D8 5 h: Summary: ns
  Overall kinematic gait score, D7 vs. D8 9 h: Summary: ns
  Overall kinematic gait score, D7 vs. D9: Summary: ns
[3]; within group, before dosing
  Overall kinematic gait score, D7 vs. Baseline: Summary: ** (p<0.01, very significant)
[3]; [10]
  Overall kinematic gait score, D7 vs. D8 5 h: Predicted (LS) mean diff.: −0.5337
  Overall kinematic gait score, D7 vs. D8 9 h: Predicted (LS) mean diff.: −1.516
  Overall kinematic gait score, D7 vs. D9: Predicted (LS) mean diff.: −1.619
[3]; within group, z-score, before dosing
  Overall kinematic gait score, D7 vs. Baseline: Predicted (LS) mean diff.: 2.236
[4]; D22, acute single dose, Duloxetine 25 mg/kg i.p.
  ACT score compared with OXP-Vehicle control: statistically significant and comparable reduction in cool allodynia
[4]; D31, chronic repeated dosing, Duloxetine 25 mg/kg i.p.
  ACT score compared with OXP-Vehicle control: qualitative but not statistically significant reduction
[4]; D31, chronic repeated dosing, Mann-Whitney test
  ACT score compared with OXP-Vehicle control: p: 0.06
[4]; within group, 10-day repeated dosing, Duloxetine 25 mg/kg i.p.
  ACT score, D31 vs. D21: significant reversion of cool allodynia
[4]; within group, single dose, Duloxetine 25 mg/kg i.p.
  ACT score, reversion of cool allodynia D22 vs. D21 pre-treatment: p: < 0.001
